Test results reported in patent US11345681B1, “Inhibitors of fibroblast growth factor receptor kinases” (Kinnate Biopharma Inc., priority 2020, dated 2022).

Molecular target: Wild type FGFR2 (Homo sapiens (Human), UniProt P21802)
Assay: FGFR2 kinase assay (fluorescence-based microfluidic mobility shift assay)
Type: biochemical
Settings: wild type FGFR2 0.06 nM, 100 μM ATP, 80 minutes at room temperature; class symbols

Wild type FGFR2, sequence (P21802 22-821): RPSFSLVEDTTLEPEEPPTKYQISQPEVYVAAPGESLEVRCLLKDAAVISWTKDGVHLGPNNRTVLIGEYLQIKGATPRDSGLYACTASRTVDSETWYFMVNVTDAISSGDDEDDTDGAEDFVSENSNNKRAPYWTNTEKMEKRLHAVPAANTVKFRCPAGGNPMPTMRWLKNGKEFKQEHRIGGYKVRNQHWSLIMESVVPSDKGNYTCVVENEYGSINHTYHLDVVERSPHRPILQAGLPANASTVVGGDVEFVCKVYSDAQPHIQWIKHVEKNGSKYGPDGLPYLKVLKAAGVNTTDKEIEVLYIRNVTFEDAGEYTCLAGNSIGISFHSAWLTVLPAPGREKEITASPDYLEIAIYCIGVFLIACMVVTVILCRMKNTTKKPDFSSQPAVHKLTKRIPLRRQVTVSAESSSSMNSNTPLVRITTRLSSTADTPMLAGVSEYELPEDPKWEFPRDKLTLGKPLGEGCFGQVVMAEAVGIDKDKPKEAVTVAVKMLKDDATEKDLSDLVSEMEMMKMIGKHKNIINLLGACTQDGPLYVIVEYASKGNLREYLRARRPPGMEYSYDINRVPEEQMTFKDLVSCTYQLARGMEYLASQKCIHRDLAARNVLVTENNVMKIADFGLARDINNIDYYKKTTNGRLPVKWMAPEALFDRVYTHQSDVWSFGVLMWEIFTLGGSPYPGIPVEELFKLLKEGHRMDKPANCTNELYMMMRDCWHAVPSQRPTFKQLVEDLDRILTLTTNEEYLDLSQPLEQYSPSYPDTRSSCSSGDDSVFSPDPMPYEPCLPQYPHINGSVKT

| SMILES | IC50 |
| --- | --- |
| C=CC(=O)N1C[C@@H](n2nc(C#Cc3cc4nc5n(c4cc3Cl)CCC5)c(C(N)=O)c2NC)C[C@@H]1COC [Example 285, 1-((3S,5R)-1-Acryloyl-5-(methoxymethyl)pyrrolidin-3-yl)-3-((7-chloro-2,3-dihydro-1H-benzo[d]pyrrolo[1,2-a]imidazol-6-yl)ethynyl)-5-(methylamino)-1H-pyrazole-4-carboxamide] | ≤ 100 nM |
| C=CC(=O)N1C[C@@H](n2nc(C#Cc3c(F)ccc4c3cnn4C3CC3)c(C(N)=O)c2NC)C[C@@H]1COC [Example 287, 1-((3S,5R)-1-Acryloyl-5-(methoxymethyl)pyrrolidin-3-yl)-3-((1-cyclopropyl-5-fluoro-1H-indazol-4-yl)ethynyl)-5-(methylamino)-1H-pyrazole-4-carboxamide] | ≤ 100 nM |
| C=CC(=O)N1C[C@@H](n2nc(C#Cc3cc4ncc(Cl)n4cc3F)c(C(N)=O)c2NC)C[C@@H]1COC [Example 290, 3-(2-{3-Chloro-6-fluoroimidazo[1,2-a]pyridin-7-yl}ethynyl)-1-[(3S,5R)-5-(methoxymethyl)-1-(prop-2-enoyl)pyrrolidin-3-yl]-5-(methylamino)pyrazole-4-carboxamide] | ≤ 100 nM |
